Columns and labels:
Assay in all cases: radiometric filter-binding kinase assay
CSNK2A1 (human) = CSNK2A1 (human) (UniProt P68400)
DYRK1A (human) = DYRK1A (human) (UniProt Q13627)
ROCK2 (rat) = conditions: accession and sequence are those of the human protein
EPHB2 (human) = EPHB2 (human) (UniProt P29323)
JAK2 JH1 JH2 (human) = JAK2 JH1 JH2 (human) (UniProt O60674)
AURKB (human) = AURKB (human) (UniProt Q96GD4)
MAPK13 (human) = MAPK13 (human) (UniProt O15264)
MAPK10 (human) = MAPK10 (human) (UniProt P53779)
Sequence of MAPK10 (human) (P53779 whole entry, looked up): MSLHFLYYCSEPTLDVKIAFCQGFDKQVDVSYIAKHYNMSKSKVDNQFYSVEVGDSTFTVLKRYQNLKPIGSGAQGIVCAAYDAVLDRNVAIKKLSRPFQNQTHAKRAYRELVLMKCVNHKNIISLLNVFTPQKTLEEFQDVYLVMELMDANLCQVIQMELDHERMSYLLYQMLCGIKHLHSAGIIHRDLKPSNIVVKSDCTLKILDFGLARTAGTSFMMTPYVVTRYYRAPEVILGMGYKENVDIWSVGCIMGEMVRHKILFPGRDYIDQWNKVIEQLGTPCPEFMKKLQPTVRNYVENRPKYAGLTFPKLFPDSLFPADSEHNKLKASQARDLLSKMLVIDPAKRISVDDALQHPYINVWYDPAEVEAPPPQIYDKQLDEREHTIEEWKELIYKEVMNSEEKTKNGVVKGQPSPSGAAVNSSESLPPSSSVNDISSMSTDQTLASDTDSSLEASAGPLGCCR

FGFR1 (human) = FGFR1 (human) (UniProt P11362)
MINK1 (human) = MINK1 (human) (UniProt Q8N4C8)
[1] = system: PAK2 (human), Q13177 [T402E]
Sequence of PAK2 (human), Q13177 [T402E] (Q13177 whole entry T402E, looked up): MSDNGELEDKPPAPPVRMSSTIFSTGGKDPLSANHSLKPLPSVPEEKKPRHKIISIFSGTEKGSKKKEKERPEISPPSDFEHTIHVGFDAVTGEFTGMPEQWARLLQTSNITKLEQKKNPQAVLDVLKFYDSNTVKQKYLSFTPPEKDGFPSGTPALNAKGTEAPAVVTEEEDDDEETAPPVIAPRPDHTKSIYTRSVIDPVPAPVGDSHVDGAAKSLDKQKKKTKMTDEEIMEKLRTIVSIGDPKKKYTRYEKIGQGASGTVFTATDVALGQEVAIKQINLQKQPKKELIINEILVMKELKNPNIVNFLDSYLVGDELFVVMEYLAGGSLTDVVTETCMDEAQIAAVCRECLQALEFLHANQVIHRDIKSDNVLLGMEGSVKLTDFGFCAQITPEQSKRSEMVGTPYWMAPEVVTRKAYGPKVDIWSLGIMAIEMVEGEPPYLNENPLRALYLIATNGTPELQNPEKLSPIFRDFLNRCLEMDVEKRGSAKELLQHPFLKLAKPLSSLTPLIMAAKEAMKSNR

MAPKAPK5 (human) = MAPKAPK5 (human) (UniProt Q8IW41)
DAPK1 (human) = DAPK1 (human) (UniProt P53355)
STK3 (human) = STK3 (human) (UniProt Q13188)
CLK2 (human) = CLK2 (human) (UniProt P49760)
SRPK1 (human) = SRPK1 (human) (UniProt Q96SB4)
MKNK1 (human) = MKNK1 (human) (UniProt Q9BUB5)
HIPK1 (human) = HIPK1 (human) (UniProt Q86Z02)
Sequence of HIPK1 (human) (Q86Z02 whole entry, looked up): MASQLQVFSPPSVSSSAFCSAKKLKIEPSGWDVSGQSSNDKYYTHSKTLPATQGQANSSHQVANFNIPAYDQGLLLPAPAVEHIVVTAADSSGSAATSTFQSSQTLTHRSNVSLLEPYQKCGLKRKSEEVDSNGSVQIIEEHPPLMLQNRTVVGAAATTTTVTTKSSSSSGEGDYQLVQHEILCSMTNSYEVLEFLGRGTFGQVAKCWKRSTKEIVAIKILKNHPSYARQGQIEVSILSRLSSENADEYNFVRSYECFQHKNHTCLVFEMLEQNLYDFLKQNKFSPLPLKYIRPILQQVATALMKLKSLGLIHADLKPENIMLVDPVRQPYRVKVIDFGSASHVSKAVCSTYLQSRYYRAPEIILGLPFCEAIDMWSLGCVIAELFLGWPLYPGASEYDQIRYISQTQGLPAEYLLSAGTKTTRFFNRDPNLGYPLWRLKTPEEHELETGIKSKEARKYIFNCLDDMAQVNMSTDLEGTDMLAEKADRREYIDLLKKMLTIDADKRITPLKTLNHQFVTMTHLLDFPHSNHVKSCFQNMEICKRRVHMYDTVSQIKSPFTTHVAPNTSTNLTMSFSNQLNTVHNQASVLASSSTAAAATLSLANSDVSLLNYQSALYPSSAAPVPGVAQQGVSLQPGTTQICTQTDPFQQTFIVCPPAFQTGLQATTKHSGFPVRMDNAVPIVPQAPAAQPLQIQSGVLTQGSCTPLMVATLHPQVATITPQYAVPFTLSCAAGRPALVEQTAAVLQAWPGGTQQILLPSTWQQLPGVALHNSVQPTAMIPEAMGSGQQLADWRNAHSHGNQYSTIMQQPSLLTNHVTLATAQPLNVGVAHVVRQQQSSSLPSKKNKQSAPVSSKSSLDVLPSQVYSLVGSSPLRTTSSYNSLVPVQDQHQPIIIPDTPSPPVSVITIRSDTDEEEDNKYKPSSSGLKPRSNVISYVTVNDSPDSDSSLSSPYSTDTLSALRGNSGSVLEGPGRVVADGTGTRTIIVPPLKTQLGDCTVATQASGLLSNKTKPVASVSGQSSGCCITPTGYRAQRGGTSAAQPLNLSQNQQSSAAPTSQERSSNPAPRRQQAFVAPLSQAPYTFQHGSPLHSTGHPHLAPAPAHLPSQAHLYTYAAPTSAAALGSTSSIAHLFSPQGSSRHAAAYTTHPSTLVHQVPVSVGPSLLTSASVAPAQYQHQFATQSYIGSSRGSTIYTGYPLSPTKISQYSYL

PHKG1 (human) = PHKG1 (human) (UniProt Q16816)
LCK (mouse) = conditions: accession and sequence are those of the human protein
MAPK11 (human) = MAPK11 (human) (UniProt Q15759)
MARK3 (human) = MARK3 (human) (UniProt P27448)
GCK (human) = GCK (human) (UniProt Q12851)
CHEK1 (human) = CHEK1 (human) (UniProt O14757)
Sequence of CHEK1 (human) (O14757 whole entry, looked up): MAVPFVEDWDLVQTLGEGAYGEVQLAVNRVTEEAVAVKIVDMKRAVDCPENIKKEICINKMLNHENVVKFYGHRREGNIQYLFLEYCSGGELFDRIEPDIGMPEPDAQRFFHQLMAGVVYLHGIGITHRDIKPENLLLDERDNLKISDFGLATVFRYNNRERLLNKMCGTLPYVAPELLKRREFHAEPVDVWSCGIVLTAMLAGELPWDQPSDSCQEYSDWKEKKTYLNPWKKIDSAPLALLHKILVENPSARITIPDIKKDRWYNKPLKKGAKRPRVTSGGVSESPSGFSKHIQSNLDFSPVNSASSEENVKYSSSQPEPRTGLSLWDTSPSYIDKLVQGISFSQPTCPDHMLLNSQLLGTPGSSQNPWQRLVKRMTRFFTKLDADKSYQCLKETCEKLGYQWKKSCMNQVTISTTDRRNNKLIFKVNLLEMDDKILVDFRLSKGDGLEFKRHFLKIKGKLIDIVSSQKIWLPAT

TBK1 (human) = TBK1 (human) (UniProt Q9UHD2)
Sequence of TBK1 (human) (Q9UHD2 whole entry, looked up): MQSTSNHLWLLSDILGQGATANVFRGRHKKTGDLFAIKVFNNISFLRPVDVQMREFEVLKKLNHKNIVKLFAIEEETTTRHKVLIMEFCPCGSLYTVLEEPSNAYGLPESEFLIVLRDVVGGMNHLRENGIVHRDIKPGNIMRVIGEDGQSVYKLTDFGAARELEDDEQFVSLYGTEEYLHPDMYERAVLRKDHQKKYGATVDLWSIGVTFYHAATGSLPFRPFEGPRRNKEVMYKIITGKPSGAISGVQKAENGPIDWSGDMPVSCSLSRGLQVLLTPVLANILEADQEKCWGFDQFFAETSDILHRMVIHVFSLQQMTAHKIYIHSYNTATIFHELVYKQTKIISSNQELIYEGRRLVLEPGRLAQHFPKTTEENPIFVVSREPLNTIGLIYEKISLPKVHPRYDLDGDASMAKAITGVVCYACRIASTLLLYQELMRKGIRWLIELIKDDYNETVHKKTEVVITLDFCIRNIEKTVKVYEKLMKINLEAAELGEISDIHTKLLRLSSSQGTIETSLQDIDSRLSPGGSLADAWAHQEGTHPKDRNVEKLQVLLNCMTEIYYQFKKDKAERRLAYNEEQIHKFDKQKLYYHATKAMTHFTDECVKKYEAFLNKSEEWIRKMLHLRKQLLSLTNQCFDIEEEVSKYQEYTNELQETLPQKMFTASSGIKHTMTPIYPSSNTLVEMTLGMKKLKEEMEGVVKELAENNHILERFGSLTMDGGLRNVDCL

CAMKK2 (human) = CAMKK2 (human) (UniProt Q96RR4)
MAPK8 (human) = MAPK8 (human) (UniProt P45983)
TAOK1 (human) = TAOK1 (human) (UniProt Q7L7X3)
YES1 (human) = YES1 (human) (UniProt P07947)
Sequence of YES1 (human) (P07947 whole entry, looked up): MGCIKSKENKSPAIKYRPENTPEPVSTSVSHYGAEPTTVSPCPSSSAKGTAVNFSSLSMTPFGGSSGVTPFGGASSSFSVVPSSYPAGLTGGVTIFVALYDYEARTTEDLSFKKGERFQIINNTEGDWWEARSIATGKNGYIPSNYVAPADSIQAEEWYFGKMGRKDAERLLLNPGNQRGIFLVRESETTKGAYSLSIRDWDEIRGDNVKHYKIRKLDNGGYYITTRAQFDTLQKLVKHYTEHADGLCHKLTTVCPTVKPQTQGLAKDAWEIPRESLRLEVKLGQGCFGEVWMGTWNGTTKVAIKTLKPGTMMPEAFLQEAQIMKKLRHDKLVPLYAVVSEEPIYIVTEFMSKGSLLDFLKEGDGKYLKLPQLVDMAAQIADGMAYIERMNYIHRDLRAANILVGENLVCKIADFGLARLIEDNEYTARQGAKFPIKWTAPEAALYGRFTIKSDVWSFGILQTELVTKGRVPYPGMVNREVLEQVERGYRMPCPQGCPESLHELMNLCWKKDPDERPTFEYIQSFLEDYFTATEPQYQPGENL

PIM3 (human) = PIM3 (human) (UniProt Q86V86)
BRSK2 (human) = BRSK2 (human) (UniProt Q8IWQ3)
CaMK1 (human) = CaMK1 (human) (UniProt Q14012)
DYRK3 (human) = DYRK3 (human) (UniProt O43781)
Sequence of DYRK3 (human) (O43781 whole entry, looked up): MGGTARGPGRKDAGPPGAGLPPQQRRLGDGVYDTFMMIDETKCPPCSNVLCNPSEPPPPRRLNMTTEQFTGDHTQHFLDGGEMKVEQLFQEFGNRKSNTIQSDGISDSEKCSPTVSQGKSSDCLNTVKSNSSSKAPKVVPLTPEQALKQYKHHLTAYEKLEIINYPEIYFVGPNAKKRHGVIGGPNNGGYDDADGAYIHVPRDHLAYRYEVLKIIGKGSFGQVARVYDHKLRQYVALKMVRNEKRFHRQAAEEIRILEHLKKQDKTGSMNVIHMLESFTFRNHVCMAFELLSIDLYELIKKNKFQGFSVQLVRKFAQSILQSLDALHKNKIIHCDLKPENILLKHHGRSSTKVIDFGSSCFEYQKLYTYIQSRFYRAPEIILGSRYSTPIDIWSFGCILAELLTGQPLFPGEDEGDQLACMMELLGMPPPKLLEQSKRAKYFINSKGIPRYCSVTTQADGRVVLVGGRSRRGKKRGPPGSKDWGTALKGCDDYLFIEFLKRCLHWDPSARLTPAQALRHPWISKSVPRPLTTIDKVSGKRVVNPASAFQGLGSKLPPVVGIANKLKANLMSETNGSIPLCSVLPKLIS

[2] = system: SGK1 (human), O00141 [S422D]

COc1ccc(N(C(=O)Nc2c(C)cccc2C)c2cc(Nc3ccc(N4CCN(C)CC4)cc3)ncn2)c(OC)c1
residual activity (CSNK2A1 (human); compound 0.01 µM): 98% | residual activity (CSNK2A1 (human); compound 0.1 µM): 100% | residual activity (CSNK2A1 (human); compound 1.0 µM): 100% | residual activity (DYRK1A (human); compound 0.01 µM): 100% | residual activity (DYRK1A (human); compound 0.1 µM): 95% | residual activity (DYRK1A (human); compound 1.0 µM): 93% | residual activity (ROCK2 (rat); compound 0.01 µM): 90% | residual activity (ROCK2 (rat); compound 1.0 µM): 68% | residual activity (EPHB2 (human); compound 0.01 µM): 109% | residual activity (EPHB2 (human); compound 0.1 µM): 43% | residual activity (EPHB2 (human); compound 1.0 µM): 1% | residual activity (JAK2 JH1 JH2 (human); compound 0.01 µM): 99% | residual activity (JAK2 JH1 JH2 (human); compound 0.1 µM): 88% | residual activity (JAK2 JH1 JH2 (human); compound 1.0 µM): 89% | residual activity (AURKB (human); compound 0.01 µM): 93% | residual activity (AURKB (human); compound 0.1 µM): 92% | residual activity (AURKB (human); compound 1.0 µM): 91% | residual activity (MAPK13 (human); compound 0.01 µM): 102% | residual activity (MAPK13 (human); compound 0.1 µM): 97% | residual activity (MAPK13 (human); compound 1.0 µM): 98% | residual activity (MAPK10 (human); compound 0.01 µM): 93% | residual activity (MAPK10 (human); compound 0.1 µM): 77% | residual activity (MAPK10 (human); compound 1.0 µM): 38% | residual activity (FGFR1 (human); compound 0.01 µM): 102% | residual activity (FGFR1 (human); compound 0.1 µM): 34% | residual activity (FGFR1 (human); compound 1.0 µM): 2% | residual activity (MINK1 (human); compound 0.01 µM): 94% | residual activity (MINK1 (human); compound 0.1 µM): 76% | residual activity (MINK1 (human); compound 1.0 µM): 18% | residual activity ([1]; compound 0.01 µM): 87% | residual activity ([1]; compound 0.1 µM): 59% | residual activity ([1]; compound 1.0 µM): 18% | residual activity (MAPKAPK5 (human); compound 0.01 µM): 119% | residual activity (MAPKAPK5 (human); compound 0.1 µM): 115% | residual activity (MAPKAPK5 (human); compound 1.0 µM): 125% | residual activity (DAPK1 (human); compound 0.1 µM): 88% | residual activity (DAPK1 (human); compound 1.0 µM): 96% | residual activity (STK3 (human); compound 0.01 µM): 112% | residual activity (STK3 (human); compound 0.1 µM): 109% | residual activity (STK3 (human); compound 1.0 µM): 118% | residual activity (CLK2 (human); compound 0.01 µM): 97% | residual activity (CLK2 (human); compound 0.1 µM): 100% | residual activity (CLK2 (human); compound 1.0 µM): 108% | residual activity (SRPK1 (human); compound 0.01 µM): 96% | residual activity (SRPK1 (human); compound 0.1 µM): 85% | residual activity (SRPK1 (human); compound 1.0 µM): 90% | residual activity (MKNK1 (human); compound 0.01 µM): 109% | residual activity (MKNK1 (human); compound 0.1 µM): 116% | residual activity (MKNK1 (human); compound 1.0 µM): 112% | residual activity (HIPK1 (human); compound 0.01 µM): 69% | residual activity (HIPK1 (human); compound 0.1 µM): 60% | residual activity (HIPK1 (human); compound 1.0 µM): 56% | residual activity (PHKG1 (human); compound 0.01 µM): 125% | residual activity (PHKG1 (human); compound 0.1 µM): 104% | residual activity (PHKG1 (human); compound 1.0 µM): 107% | residual activity (LCK (mouse); compound 0.01 µM): 63% | residual activity (LCK (mouse); compound 0.1 µM): 54% | residual activity (LCK (mouse); compound 1.0 µM): 47% | residual activity (MAPK11 (human); compound 0.01 µM): 89% | residual activity (MAPK11 (human); compound 0.1 µM): 42% | residual activity (MAPK11 (human); compound 1.0 µM): 19% | residual activity (MARK3 (human); compound 0.01 µM): 92% | residual activity (MARK3 (human); compound 0.1 µM): 73% | residual activity (MARK3 (human); compound 1.0 µM): 28% | residual activity (GCK (human); compound 0.01 µM): 103% | residual activity (GCK (human); compound 0.1 µM): 72% | residual activity (GCK (human); compound 1.0 µM): 21% | residual activity (CHEK1 (human); compound 0.01 µM): 95% | residual activity (CHEK1 (human); compound 0.1 µM): 100% | residual activity (CHEK1 (human); compound 1.0 µM): 86% | residual activity (TBK1 (human); compound 0.01 µM): 101% | residual activity (TBK1 (human); compound 0.1 µM): 91% | residual activity (TBK1 (human); compound 1.0 µM): 91% | residual activity (CAMKK2 (human); compound 0.01 µM): 105% | residual activity (CAMKK2 (human); compound 0.1 µM): 102% | residual activity (CAMKK2 (human); compound 1.0 µM): 89% | residual activity (MAPK8 (human); compound 0.01 µM): 94% | residual activity (MAPK8 (human); compound 0.1 µM): 107% | residual activity (MAPK8 (human); compound 1.0 µM): 86% | residual activity (TAOK1 (human); compound 0.01 µM): 85% | residual activity (TAOK1 (human); compound 0.1 µM): 69% | residual activity (TAOK1 (human); compound 1.0 µM): 33% | residual activity (YES1 (human); compound 0.01 µM): 34% | residual activity (YES1 (human); compound 0.1 µM): 11% | residual activity (YES1 (human); compound 1.0 µM): 8% | residual activity (PIM3 (human); compound 0.01 µM): 103% | residual activity (PIM3 (human); compound 0.1 µM): 110% | residual activity (PIM3 (human); compound 1.0 µM): 103% | residual activity (BRSK2 (human); compound 0.1 µM): 97% | residual activity (BRSK2 (human); compound 1.0 µM): 88% | residual activity (CaMK1 (human); compound 0.01 µM): 97% | residual activity (CaMK1 (human); compound 0.1 µM): 90% | residual activity (CaMK1 (human); compound 1.0 µM): 90% | residual activity (DYRK3 (human); compound 0.01 µM): 92% | residual activity (DYRK3 (human); compound 0.1 µM): 92% | residual activity (DYRK3 (human); compound 1.0 µM): 97% | residual activity ([2]; compound 0.01 µM): 94% | residual activity ([2]; compound 1.0 µM): 93%
